# Read-outs that look alike come from different tables or passages of the source.
# Columns and labels:
# [1] = cited from earlier work; for average mean serum concentration: pediatric patients with juvenile rheumatoid arthritis
# [2] = Three-period crossover relative bioavailability study of methotrexate injectable solutions (Vibex device SC vs needle and syringe SC and IM); type: in vivo, human; conditions: for AUC(0-inf) / Tmax / AUC(0-t) / Cmax / half-life: human, plasma, sc, subcutaneous with Vibex device
# Protocol: This was a randomized, open-label, 3-way crossover study involving 36 subjects. During the screening period, 1 of 4 MTX dose groups (10 mg, 15 mg, 20 mg, or 25 mg) were selected by the investigator for each subject based on the subject's current MTX dose at the time of enrollment and disease status (controlled RA vs. uncontrolled RA). […] One of six treatment sequences was possible as determined by the randomization schedule.
# A total of approximately 200 ml blood was obtained from each subject over the course of the study.
# Immediately following collection of each sample, each tube was gently inverted and placed in ice. Within 30 minutes of sample collection, the tubes were centrifuged at about 2000×G for 15 minutes at approximately 4° C. in order to separate the cells from the plasma. No aids for separation were used. The plasma was transferred with clean pipettes and placed in two polypropylene storage tubes in equal volumes. The storage tubes were labeled with the following information: protocol number, subject number, period number, relative time of sample, and analyte. The label was taped with clear tape to assure adherence of the label. The storage tubes were placed in a freezer at […] or below until they analyzed.
# Briefly, in an ice water bath, 100 μL of the human K2EDTA plasma sample was placed in a 2-ml centrifuge tube. 10 μL of working standard solution and 10 μL of internal standard were added to the tubes. Afterwards, […] of 30% formic acid in water was added to the tubes and 0.2 ml of cold precipitation solution (acetonitrile) was added, vortexed and centrifuged. The supernatant was transferred to a 96-well plate for LC/MS/MS analysis. A volume of approximately 5 μL of the sample was injected into an LC/MS/MS system. The LC/MS/MS analysis was carried out with a Sciex API-4000 mass spectrometer coupled with a Shimadzu LC system. […] Calibration curves and quality control samples were included in each run. The ranges of the assay for both analyses were from 1 ng/ml to 1000 ng/ml, and the limit of quantification for both analyses was 1 ng/ml.
# Concentration values that were reported as below the limit of quantification (BLQ) were treated as 0 for computing mean concentrations and in the concentration-time graphs. […] Concentrations in plasma were used as reported; but measurable concentrations observed after obtaining a BLQ result were excluded from analysis.
# The Linear Up Log Down method (equivalent to the Linear Up/Log Down option in WinNonlin® Professional) was used in the computation of AUCs. The linear trapezoidal method was employed for any area where the concentration data was increasing (or constant) and the logarithmic trapezoidal method for any area where the concentration data was decreasing. Interpolation of concentration values was conducted using the linear interpolation rule for any time point surrounded by points of increasing (or constant) concentrations and the logarithmic interpolation rule for any time point surrounded by points of decreasing concentrations.
# Pharmacokinetic parameters were calculated from the individual concentrations of MTX using noncompartmental methods. […] Secondary PK parameters calculated for each treatment were the following: time of maximum concentration (t . . . ), half-life (tin), Lambda z, and percent of area under the curve extrapolated.
# Comparisons among treatments were evaluated by a mixed model analysis of the log-transformed, dose-normalized values of Cmax, AUC(0-t), and AUC(0-inf) with sequence, treatment, and treatment period as fixed effects and subject nested within sequence as a random effect. Using these models, the least-squares (LS) mean for the above PK parameters of each treatment were determined. The differences in LS means among treatments and the 90% confidence intervals (CIs) for the differences in the log-scale LS means among treatment were also obtained.
smiles,measurement,setting,value
"CN(Cc1cnc2nc(N)nc(N)c2n1)c1ccc(C(=O)N[C@@H](CCC(=O)O)C(=O)O)cc1 [methotrexate, N-[4-[[(2,4-diamino-6-pteridinyl)methyl]methylamino]benzoyl]-L-glutamic acid]",initial average distribution volume,[1]; after intravenous administration,about 0.18 L/Kg
same,absorption from parenteral routes of injection,[1]; in vivo,completely absorbed
same,average mean serum concentration,[1]; at about 1 hour,about 0.59 μM
same,average mean serum concentration,[1]; at about 2 hours,about 0.44 μM
same,average mean serum concentration,[1]; at about 3 hours,about 0.29 μM
same,AUC(0-inf),"[2]; 10 mg, 10 mg single dose",~1160 ng·h/mL
same,Tmax,"[2]; 10 mg, 10 mg single dose",1.33 h
same,AUC(0-t),"[2]; 10 mg, 10 mg single dose, read-out: AUC(0-24)",~1150 ng·h/mL
same,AUC(0-t),"[2]; 10 mg, 10 mg single dose, read-out: AUC(0-t)",~1140 ng·h/mL
same,Cmax,"[2]; 10 mg, 10 mg single dose, subjects with rheumatoid arthritis",~213 ng/mL
same,AUC(0-inf),"[2]; 15 mg, 15 mg single dose",~1980 ng·h/mL
same,Cmax,"[2]; 15 mg, 15 mg single dose",~356 ng/mL
same,Tmax,"[2]; 15 mg, 15 mg single dose",~1.25 h
same,half-life,"[2]; 15 mg, 15 mg single dose",~3.68 h
same,AUC(0-t),"[2]; 15 mg, 15 mg single dose, read-out: AUC(0-24)",~1950 ng·h/mL
same,AUC(0-t),"[2]; 15 mg, 15 mg single dose, read-out: AUC(0-t)",~1940 ng·h/mL
same,AUC(0-inf),"[2]; 20 mg, 20 mg single dose",~2220 ng·h/mL
same,Cmax,"[2]; 20 mg, 20 mg single dose",~417 ng/mL
same,Tmax,"[2]; 20 mg, 20 mg single dose",~1.17 h
same,half-life,"[2]; 20 mg, 20 mg single dose",~3.58 h
same,AUC(0-t),"[2]; 20 mg, 20 mg single dose, read-out: AUC(0-24)",~2190 ng·h/mL
same,AUC(0-t),"[2]; 20 mg, 20 mg single dose, read-out: AUC(0-t)",~2190 ng·h/mL
same,AUC(0-inf),"[2]; 25 mg, 25 mg single dose",~2840 ng·h/mL
same,Cmax,"[2]; 25 mg, 25 mg single dose",~491 ng/mL
same,Tmax,"[2]; 25 mg, 25 mg single dose",~1.23 h
same,half-life,"[2]; 25 mg, 25 mg single dose",~3.78 h
same,AUC(0-t),"[2]; 25 mg, 25 mg single dose, read-out: AUC(0-24)",~2800 ng·h/mL
same,AUC(0-t),"[2]; 25 mg, 25 mg single dose, read-out: AUC(0-t)",~2800 ng·h/mL
same,dose proportionality of observed plasma levels,"[2]; single-dose administration, 10 mg to 25 mg dose range",increase linearly in a dose-proportionate manner

# Source: US20130058930A1 (ANTARES PHARMA, INC., priority 2011, published 2013)
